What was measured:
duck salad = test: Test B flood test duck salad; assay type: in vivo, Heteranthera limosa
Method in brief: (§1)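 Each value is a visual injury score relative to controls, with 10 meaning complete control and 0 no effect. Evaluation took place twelve to sixteen days after the 2-leaf-stage plants were treated and kept in the greenhouse.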

wild oat = test: Test B pre/postemergence wild oat; assay type: in vivo, Avena fatua
Method in brief: (§2)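 Herbicidal effect was estimated by eye on a ten-point control scale after plants spent twelve to sixteen days in a greenhouse following soil or foliar treatment. Foliar sprays targeted plants at one to four leaves; all doses were formulated in a non-phytotoxic solvent with surfactant.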

bamyardgrass = test: Test B flood test barnyardgrass; assay type: in vivo, Echinochloa crus-galli
Method in brief: as §1

morningglory = test: Test B pre/postemergence morningglory; assay type: in vivo, Ipomoea hederacea
Method in brief: as §2

soybean = test: Test B pre/postemergence soybean; assay type: in vivo, Glycine max
Method in brief: as §2

giant foxtail = test: Test B pre/postemergence giant foxtail; assay type: in vivo, Setaria faberii
Method in brief: as §2

crabgrass = test: Test B pre/postemergence crabgrass; assay type: in vivo, Digitaria sanguinalis
Method in brief: as §2

rape = test: Test B pre/postemergence rape; assay type: in vivo, Brassica napus
Method in brief: as §2

cocklebur = test: Test B pre/postemergence cocklebur; assay type: in vivo, Xanthium strumarium
Method in brief: as §2

corn = test: Test B pre/postemergence corn; assay type: in vivo, Zea mays
Method in brief: as §2

velvetleaf = test: Test B pre/postemergence velvetleaf; assay type: in vivo, Abutilon theophrasti
Method in brief: as §2

purple nutsedge = test: Test B pre/postemergence purple nutsedge; assay type: in vivo, Cyperus rotundus
Method in brief: as §2

sugar beet = test: Test B pre/postemergence sugar beet; assay type: in vivo, Beta vulgaris
Method in brief: as §2

wheat = test: Test B pre/postemergence wheat; assay type: in vivo, Triticum aestivum
Method in brief: as §2

rice = test: Test B flood test rice; assay type: in vivo, Oryza sativa
Method in brief: as §1

pigweed = test: Test B pre/postemergence pigweed; assay type: in vivo, Amaranthus retroflexus
Method in brief: as §2

[1] = Rate 62 g/ha, flood test species, Pre-emergence, visual evaluation after twelve to sixteen days
[2] = Rate 125 g/ha, under heading Pre-emergence, flood test species, visual evaluation after twelve to sixteen days
[3] = Rate 250 g/ha, Pre-emergence, flood-test species, scale 0 to 10, 0 is no effect, 10 is complete control
[4] = Rate 500 g/ha, Pre-emergence, flood test species, scale 0 to 10 (0 no effect, 10 complete control)
[5] = Postemergence, Rate 500 g/ha, scale of 0 to 10 where 0 is no effect and 10 is complete control
[6] = Preemergence, Rate 62 g/ha, scale 0 to 10 (0 no effect, 10 complete control)
[7] = Preemergence, Rate 125 g/ha, scale of 0 to 10 where 0 is no effect and 10 is complete control
[8] = Preemergence, Rate 250 g/ha, scale of 0 to 10 where 0 is no effect and 10 is complete control
[9] = Preemergence, Rate 500 g/ha, scale of 0 to 10 where 0 is no effect and 10 is complete control
[10] = Rate 62 g/ha, Postemergence, scale of 0 to 10 where 0 is no effect and 10 is complete control
[11] = Postemergence, Rate 250 g/ha, scale 0 to 10, 0 is no effect, 10 is complete control
[12] = Postemergence, Rate 125 g/ha, scale 0 to 10, 0 is no effect, 10 is complete control

Which results are given for CC(C)N(C(=O)n1oc(=O)n(C(C)Cl)c1=O)c1ccc(F)cc1 (stereo not shown) [Compound 393]?
Plant response rating, Ducksalad (0 to 10 scale, 0 is no effect, 10 is complete control) (duck salad; [1]): 0; Ducksalad plant response rating (0 to 10 scale, 0 is no effect, 10 is complete control) (duck salad; [2]): 0; Ducksalad plant response rating (duck salad; [3]): 0; Ducksalad plant response rating (duck salad; [4]): 0; Wild oats plant response rating (wild oat; [5]): 0; Plant response rating, Wild oats (wild oat; [6]): 0; Plant response rating, Wild oats (wild oat; [7]): 0; Wild oats plant response rating (wild oat; [8]): 0; Wild oats plant response rating (wild oat; [9]): 3; Wild oats plant response rating (wild oat; [10]): 0; Plant response rating, Barnyardgrass (0 to 10 scale, 0 is no effect, 10 is complete control) (bamyardgrass; [1]): 0; Barnyardgrass plant response rating (0 to 10 scale, 0 is no effect, 10 is complete control) (bamyardgrass; [2]): 0; Barnyardgrass plant response rating (bamyardgrass; [3]): 0; Barnyardgrass plant response rating (bamyardgrass; [4]): 0; Plant response rating, Morningglory (morningglory; [11]): 0; Morningglory plant response rating (morningglory; [5]): 0; Plant response rating, Morningglory (morningglory; [6]): 0; Plant response rating, Morningglory (morningglory; [7]): 0; Morningglory plant response rating (morningglory; [8]): 0; Morningglory plant response rating (morningglory; [9]): 2; Morningglory plant response rating (morningglory; [10]): 0; Plant response rating, Soybean (soybean; [11]): 2; Soybean plant response rating (soybean; [5]): 2; Plant response rating, Soybean (soybean; [6]): 0; Plant response rating, Soybean (soybean; [7]): 0; Soybean plant response rating (soybean; [8]): 0; Soybean plant response rating (soybean; [9]): 0; Soybean plant response rating (soybean; [10]): 1; Plant response rating, Giant foxtail (giant foxtail; [12]): 8; Plant response rating, Giant foxtail (giant foxtail; [11]): 9; Giant foxtail plant response rating (giant foxtail; [5]): 9; Plant response rating, Giant foxtail (giant foxtail; [6]): 1; Plant response rating, Giant foxtail (giant foxtail; [7]): 9; Giant foxtail plant response rating (giant foxtail; [8]): 10; Giant foxtail plant response rating (giant foxtail; [9]): 10; Giant foxtail plant response rating (giant foxtail; [10]): 5; Plant response rating, Crabgrass (crabgrass; [12]): 1; Plant response rating, Crabgrass (crabgrass; [11]): 5; Crabgrass plant response rating (crabgrass; [5]): 8; Plant response rating, Crabgrass (crabgrass; [6]): 0; Plant response rating, Crabgrass (crabgrass; [7]): 2; Crabgrass plant response rating (crabgrass; [8]): 3; Crabgrass plant response rating (crabgrass; [9]): 8; Crabgrass plant response rating (crabgrass; [10]): 0; Plant response rating, Rape (rape; [11]): 3; Plant response rating, Rape (rape; [6]): 0; Plant response rating, Rape (rape; [7]): 0; Rape plant response rating (rape; [8]): 0; Rape plant response rating (rape; [9]): 0; Plant response rating, Cocklebur (cocklebur; [12]): 0; Plant response rating, Cocklebur (cocklebur; [11]): 0; Cocklebur plant response rating (cocklebur; [5]): 0; Plant response rating, Cocklebur (cocklebur; [6]): 0; Plant response rating, Cocklebur (cocklebur; [7]): 0; Cocklebur plant response rating (cocklebur; [8]): 0; Cocklebur plant response rating (cocklebur; [9]): 0; Cocklebur plant response rating (cocklebur; [10]): 0; Plant response rating, Corn (corn; [12]): 0; Plant response rating, Corn (corn; [11]): 0; Corn plant response rating (corn; [5]): 0; Plant response rating, Corn (corn; [6]): 0; Plant response rating, Corn (corn; [7]): 0; Corn plant response rating (corn; [8]): 0; Corn plant response rating (corn; [9]): 0; Corn plant response rating (corn; [10]): 0; Plant response rating, Velvetleaf (velvetleaf; [11]): 0; Velvetleaf plant response rating (velvetleaf; [5]): 0; Plant response rating, Velvetleaf (velvetleaf; [6]): 0; Plant response rating, Velvetleaf (velvetleaf; [7]): 0; Velvetleaf plant response rating (velvetleaf; [8]): 0; Velvetleaf plant response rating (velvetleaf; [9]): 0; Velvetleaf plant response rating (velvetleaf; [10]): 0; Plant response rating, Nutsedge (purple nutsedge; [11]): 0; Nutsedge plant response rating (purple nutsedge; [5]): 0; Plant response rating, Nutsedge (purple nutsedge; [6]): 0; Plant response rating, Nutsedge (purple nutsedge; [7]): 0; Nutsedge plant response rating (purple nutsedge; [8]): 0; Nutsedge plant response rating (purple nutsedge; [9]): 0; Nutsedge plant response rating (purple nutsedge; [10]): 0; Plant response rating, Sugarbeets (sugar beet; [11]): 0; Sugarbeets plant response rating (sugar beet; [5]): 7; Plant response rating, Sugarbeets (sugar beet; [6]): 0; Plant response rating, Sugarbeets (sugar beet; [7]): 2; Sugarbeets plant response rating (sugar beet; [8]): 2; Sugarbeets plant response rating (sugar beet; [9]): 3; Sugarbeets plant response rating (sugar beet; [10]): 0; Wheat plant response rating (wheat; [5]): 0; Plant response rating, Wheat (wheat; [6]): 0; Plant response rating, Wheat (wheat; [7]): 0; Wheat plant response rating (wheat; [8]): 0; Wheat plant response rating (wheat; [9]): 0; Wheat plant response rating (wheat; [10]): 0; Plant response rating, Rice (0 to 10 scale, 0 is no effect, 10 is complete control) (rice; [1]): 0; Rice plant response rating (0 to 10 scale, 0 is no effect, 10 is complete control) (rice; [2]): 0; Rice plant response rating (rice; [3]): 0; Rice plant response rating (rice; [4]): 0; Plant response rating, Redroot pigweed (pigweed; [11]): 0; Redroot pigweed plant response rating (pigweed; [5]): 0; Plant response rating, Redroot pigweed (pigweed; [6]): 0; Plant response rating, Redroot pigweed (pigweed; [7]): 2; Redroot pigweed plant response rating (pigweed; [8]): 2; Redroot pigweed plant response rating (pigweed; [9]): 10; Redroot pigweed plant response rating (pigweed; [10]): 0
